# Key:
# [1] = system: overnight fasted Wistar rats; experiment: Oral sucrose tolerance test; format: in vivo, rat
# Source text: (§1) Adult Wistar rats weighing 150–180 g were collected from the University Central Animal Facility and housed under a controlled environment. All animal experiments were approved by the Institutional Animal Ethical Committee (Order No : MGZ/2620/2011-12 Dated 31-01-2012; UOM/IAEC/18/2011), Department of Studies in Zoology, University of Mysore, Mysore and were in accordance with the guidelines of the Committee for the Purpose of Control and Supervision of Experiments on Animals (CPCSEA).
# (§2) The experimental animals were randomly divided into 11 groups each consisting of 5 rats. […] Blood was collected from the tail vein to the tubes containing anticoagulant (2.5% trisodium citrate and 1.37% citric acid in the ratio 1∶5; anti-coagulant: blood) at time point 0 (just before sucrose/maltose administration), and subsequently at 30, 60, 90, 120 and 180 min after substrate (sucrose/maltose) administration. Plasma was separated by centrifuging the samples at 2000 rpm for 10 min and stored at −20°C until analysis. Plasma glucose concentration was determined by using the Glucose oxidase (GOD POD) kit according to the manufacturer’s protocol.
# porcine diaphragm = experiment: Glucose uptake study in porcine diaphragm; conditions: 50 and 100 µM, with and without insulin (1 U), 5 mM glucose
# Method: Porcine diaphragm was purchased from a slaughter house, and cleaned using ice cold 0.9% saline several times to remove blood stains. This diaphragm was used for glucose uptake and inhibition by compound 7. Diaphragm (100 mg) was suspended in a 24 well culture plate containing 500 µL saline. In order to initiate the reaction, 5 mM glucose was added to each well. To enhance the glucose uptake by the diaphragm, 1 unit of insulin was used in each well, and the volume was made up to 1 ml with saline. For inhibition studies, compound 7 at a concentration of 50 & 100 µM was used. From each well 100 µL of the assay mixture was aspirated at different time intervals (0, 5, 10, 20, 30 and 60 min). From this, glucose concentration was measured using Glucose oxidase (GOD POD) kit according to the manufacturer’s protocol.
# rat intestinal maltase = experiment: Intestinal α-glucosidase inhibitory assay, maltose as substrate; format: biochemical
# Method: (§3) Intestinal α-glucosidase activity was determined by measuring the amount of glucose hydrolyzed from maltose or sucrose. Briefly, rat intestinal acetone powder was homogenized in 0.9% saline and the suspension was centrifuged at 10,000 g for 30 min at 4°C and the supernatant obtained was used as enzyme source. […] After the respective incubation period, reaction was terminated by keeping the samples in boiling water bath for 10 min. The concentration of glucose released from the reaction mixtures was determined by using Glucose oxidase (GOD POD) kit according to the manufacturer’s protocol. Results were expressed as percentage inhibition of intestinal maltase/sucrase activity.
# [2] = system: overnight fasted Wistar rats; experiment: Oral maltose tolerance test; format: in vivo, rat
# Source text: as §1, §2
# α-Glucosidase = target: T1, α-Glucosidase (Saccharomyces cerevisiae, UniProt P53341); experiment: biochemical; conditions: 0–100 µM, pre-incubation 10 min 37°C, pH 6.9; NS = not significant
# T1 construct: purchased SRL, Mumbai (India)
# T1 sequence (P53341 whole entry): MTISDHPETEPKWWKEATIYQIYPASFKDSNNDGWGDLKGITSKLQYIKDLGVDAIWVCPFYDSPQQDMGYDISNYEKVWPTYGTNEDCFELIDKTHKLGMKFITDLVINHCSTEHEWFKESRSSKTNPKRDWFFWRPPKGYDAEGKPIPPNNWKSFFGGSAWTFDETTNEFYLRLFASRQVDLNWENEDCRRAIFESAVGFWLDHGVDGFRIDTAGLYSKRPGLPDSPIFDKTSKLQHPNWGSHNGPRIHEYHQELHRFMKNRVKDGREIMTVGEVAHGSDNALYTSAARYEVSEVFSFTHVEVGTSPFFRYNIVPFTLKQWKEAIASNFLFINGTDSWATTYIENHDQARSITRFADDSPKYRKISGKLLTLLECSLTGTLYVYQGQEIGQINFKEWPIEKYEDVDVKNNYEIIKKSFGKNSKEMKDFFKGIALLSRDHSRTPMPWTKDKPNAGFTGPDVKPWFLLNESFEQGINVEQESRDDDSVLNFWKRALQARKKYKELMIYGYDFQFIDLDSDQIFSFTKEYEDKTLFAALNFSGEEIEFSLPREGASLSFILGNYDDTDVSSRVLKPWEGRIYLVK
# Method: (§4) Porcine pancreatic α-Amylase and Yeast α-Glucosidase were purchased from SRL, Mumbai (India). Glucose oxidase (GOD POD) kit was purchased from Piramal HealthCare Ltd, Mumbai (India). All other chemicals used were of analytical grade and purchased from Sigma Aldrich, St. Louis (USA) and SRL, Mumbai (India). All IR spectra were obtained in KBr disc on a Shimadzu FT-IR 157 Spectrometer. ^1H and ^13C NMR spectra were recorded on a Bruker WH-200 (400 MZ) spectrometer in CDCl3 or DMSO-d6 as solvent, using TMS as an internal standard and chemical shifts are expressed as ppm. Mass spectra were determined on a Shimadzu LC-MS. The elemental analyses were carried out using an Elemental Vario Cube CHNS rapid Analyzer. The progress of the reaction was monitored by TLC pre-coated silica gel G plates.
# The α-glucosidase inhibitory activities of synthesized compounds were evaluated using the method developed by Tsujii et al.. Briefly, α-glucosidase was dissolved in phosphate buffer (50 mM, pH 6.9) and pre-treated with various concentrations of 1,3-benzoxazine derivatives (0–100 µM) independently for 10 min at 37°C. The reaction was initiated by the addition of 50 µL of 5 mM p-nitrophenyl- α -D-glucopyranoside solution in phosphate buffer (50 mM, pH 6.9). The enzyme reaction was carried out at 37°C for 30 min. The reaction was terminated by the addition of Na2CO3 (1 M). The enzymatic activity of α-glucosidase was quantified by measuring the absorption at 405 nm using a Varioskan multimode plate reader (Thermo Scientifics, USA). The inhibitory effect of compounds was defined as inhibitory activity (%) = (Abs Control – Abs Compound treated)/Abs Control ×100. Concentration-response assays were used to determine the potency (IC50) of 1,3-benzoxazine derivatives based on the logistic analysis of the concentration-response curve using Microsoft Excel.
# [3] = target: T2, Porcine pancreatic α-amylase (Sus scrofa, UniProt P00690); experiment: α-amylase inhibition assay (starch, DNS reagent); format: biochemical; conditions: 0–100 µM, pre-incubation 10 min 37°C, pH 6.9; NS = not significant
# T2 construct: purchased SRL, Mumbai (India)
# T2 sequence (P00690 16-511): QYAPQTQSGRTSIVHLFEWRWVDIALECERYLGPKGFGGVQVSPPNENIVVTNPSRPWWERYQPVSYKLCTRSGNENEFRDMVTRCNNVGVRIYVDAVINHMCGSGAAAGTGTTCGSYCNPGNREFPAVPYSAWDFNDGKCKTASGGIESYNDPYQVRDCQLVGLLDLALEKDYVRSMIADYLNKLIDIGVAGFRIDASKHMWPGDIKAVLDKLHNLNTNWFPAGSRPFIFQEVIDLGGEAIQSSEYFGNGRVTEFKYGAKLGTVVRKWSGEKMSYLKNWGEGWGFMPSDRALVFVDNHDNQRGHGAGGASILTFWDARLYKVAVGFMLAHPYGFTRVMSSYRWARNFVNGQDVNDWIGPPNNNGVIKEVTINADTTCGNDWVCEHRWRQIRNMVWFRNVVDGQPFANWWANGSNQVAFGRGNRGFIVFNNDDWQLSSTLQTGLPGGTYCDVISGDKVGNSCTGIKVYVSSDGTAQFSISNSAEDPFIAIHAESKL
# Method: as §4, with “All IR spectra were obtained in KBr disc on a Shimadzu FT-IR 157 Spectrometer. ^1H and ^13C NMR spectra were recorded on a Bruker WH-200 (400 MZ) spectrometer in CDCl3 or DMSO-d6 as solvent, using TMS as an internal standard and chemical shifts are expressed as ppm.” left out
# The α-amylase inhibition assay was performed according to a previous report. Porcine pancreatic α-amylase (3 units/mL) was dissolved in 0.1 M phosphate buffered saline, pH 6.9. […] The reaction was initiated by adding substrate solution (0.1% starch) to the incubation medium. After 10 min incubation, the reaction was stopped by adding 250 µL dinitrosalicylic (DNS) reagent (1% 3, 5-dinitrosalicylic acid, 0.2% phenol, 0.05% Na2SO3 and 1% NaOH in aqueous solution) to the reaction mixture. The reaction was terminated by keeping the reaction mixture in boiling water bath for 10 min. Thereafter, 250 µL of 40% potassium sodium tartarate solution was added to the mixtures to stabilize the colour. After cooling to room temperature in a cold water bath, the absorbance was recorded at 540 nm using a Varioskan multimode plate reader (Thermo Scientifics, USA). Acrabose was used as positive control. The percentage of inhibition was calculated using Abs Contol – Abs Sample ×100/Abs Control. Where Abs Control was the absorbance without sample, Abs sample was the absorbance of enzyme with compound.
# rat intestinal sucrase = target: T3, rat intestinal sucrase (Rattus norvegicus, UniProt P23739); experiment: Intestinal α-glucosidase inhibitory assay, sucrose as substrate; format: biochemical
# T3 construct: the supernatant obtained was used as enzyme source; tissue Sigma Aldrich, St. Louis (USA); host or cells: rat intestinal acetone powder (supernatant of the saline homogenate)
# T3 sequence (P23739 whole entry): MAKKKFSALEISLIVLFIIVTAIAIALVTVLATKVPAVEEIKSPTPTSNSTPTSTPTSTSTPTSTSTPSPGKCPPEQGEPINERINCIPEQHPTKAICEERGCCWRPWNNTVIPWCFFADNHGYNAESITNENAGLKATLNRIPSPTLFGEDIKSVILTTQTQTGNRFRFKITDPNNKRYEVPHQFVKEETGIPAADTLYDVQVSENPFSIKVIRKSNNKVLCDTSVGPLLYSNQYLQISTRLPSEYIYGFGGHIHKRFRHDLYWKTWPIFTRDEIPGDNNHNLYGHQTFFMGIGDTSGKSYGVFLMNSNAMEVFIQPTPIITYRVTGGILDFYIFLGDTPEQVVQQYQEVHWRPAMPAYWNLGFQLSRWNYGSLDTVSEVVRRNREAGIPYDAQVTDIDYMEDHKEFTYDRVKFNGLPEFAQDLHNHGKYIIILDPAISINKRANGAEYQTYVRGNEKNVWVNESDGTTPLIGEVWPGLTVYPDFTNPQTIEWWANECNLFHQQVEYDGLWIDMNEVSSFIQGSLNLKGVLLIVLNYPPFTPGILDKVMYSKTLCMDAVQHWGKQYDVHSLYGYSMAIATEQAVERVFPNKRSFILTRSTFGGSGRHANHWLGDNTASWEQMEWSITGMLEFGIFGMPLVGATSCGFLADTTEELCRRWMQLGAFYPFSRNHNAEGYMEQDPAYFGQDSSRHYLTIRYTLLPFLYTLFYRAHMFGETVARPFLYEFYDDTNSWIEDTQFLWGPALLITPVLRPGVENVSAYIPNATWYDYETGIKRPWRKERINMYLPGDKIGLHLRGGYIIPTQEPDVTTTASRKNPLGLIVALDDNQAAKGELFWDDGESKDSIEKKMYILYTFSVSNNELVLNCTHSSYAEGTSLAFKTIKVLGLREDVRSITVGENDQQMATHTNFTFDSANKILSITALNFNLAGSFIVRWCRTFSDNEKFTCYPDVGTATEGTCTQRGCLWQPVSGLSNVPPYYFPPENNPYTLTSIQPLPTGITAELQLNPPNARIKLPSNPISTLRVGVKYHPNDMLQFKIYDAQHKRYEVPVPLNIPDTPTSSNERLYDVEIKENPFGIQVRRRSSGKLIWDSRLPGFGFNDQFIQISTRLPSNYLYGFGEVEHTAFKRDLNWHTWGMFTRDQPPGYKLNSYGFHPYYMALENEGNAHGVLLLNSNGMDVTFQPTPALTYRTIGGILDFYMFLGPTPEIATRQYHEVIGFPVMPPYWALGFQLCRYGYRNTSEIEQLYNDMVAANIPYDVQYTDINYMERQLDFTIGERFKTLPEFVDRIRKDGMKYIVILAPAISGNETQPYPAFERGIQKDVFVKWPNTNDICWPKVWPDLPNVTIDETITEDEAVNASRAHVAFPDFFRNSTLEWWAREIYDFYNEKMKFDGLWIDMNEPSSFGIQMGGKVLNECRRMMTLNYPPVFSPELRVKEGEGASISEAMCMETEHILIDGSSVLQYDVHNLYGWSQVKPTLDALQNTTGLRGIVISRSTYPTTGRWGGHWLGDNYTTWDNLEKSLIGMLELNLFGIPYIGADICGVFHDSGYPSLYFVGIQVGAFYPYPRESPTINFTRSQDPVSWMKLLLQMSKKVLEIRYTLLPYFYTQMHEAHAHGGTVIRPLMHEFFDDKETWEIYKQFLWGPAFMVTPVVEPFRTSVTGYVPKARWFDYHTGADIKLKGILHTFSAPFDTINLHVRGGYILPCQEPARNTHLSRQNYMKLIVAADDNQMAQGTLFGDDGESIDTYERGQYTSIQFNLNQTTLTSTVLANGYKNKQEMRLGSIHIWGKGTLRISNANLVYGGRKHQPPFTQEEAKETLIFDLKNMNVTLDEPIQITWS
# Method: as §3
structure (smiles),measurement,setting,value
"Oc1ccc(C2Nc3cc(Cl)ccc3CO2)cc1 (stereo not shown) [compound 7, 4-(7-chloro-2,4-dihydro-1H-benzo[d][1,3]oxazin-2-yl)phenol]",plasma glucose concentration,"[1]; 50 mg/kg oral, sucrose 3 g/kg, 0–180 min, compared to acarbose treated group",significantly reduced the plasma glucose concentration throughout all time points
same,plasma glucose concentration,"[1]; 100 mg/kg oral, sucrose 3 g/kg, compared to acarbose standard",significantly more effective than the acarbose standard at all time points
same,plasma glucose concentration,"[1]; compound 7 50 mg/kg together with acarbose 3 mg/kg, sucrose, up to 180 min, compared to saline group",plasma glucose concentration remained unchanged when compared to the saline treated group
same,glucose uptake by diaphragm,porcine diaphragm,significantly blocked the glucose uptake both in control and insulin treated diaphragm in a dose-dependent manner
same,percentage inhibition of intestinal maltase in presence of acarbose,"rat intestinal maltase; 5 µM acarbose with compound 7 1–10 µM, compared with intestinal sucrase",synergistically inhibited intestinal maltase more efficiently compared to intestinal sucrase
same,percentage inhibition of intestinal maltase,rat intestinal maltase; compound 7 5–25 µM,dose-dependent manner
same,IC50,"rat intestinal maltase; rat intestinal acetone powder, maltose 37 mM, 30 min",10 µM
same,selectivity for maltase over sucrase,"rat intestinal maltase; ratio of IC50 values, rat intestinal enzymes",two-fold selective for maltase
same,plasma glucose concentration,"[2]; 50 mg/kg oral, maltose 3 g/kg, 90 min, compared to acarbose",significantly reduced plasma glucose concentration at the 90 min time point compared to acarbose
same,plasma glucose concentration,"[2]; 100 mg/kg oral, maltose 3 g/kg, compared to acarbose standard",significantly more effective than the acarbose standard at all time points
same,plasma glucose concentration,"[2]; compound 7 50 mg/kg together with acarbose 3 mg/kg, maltose, up to 180 min, compared to saline group",plasma glucose concentration remained unchanged when compared to the saline treated group
same,IC50,α-Glucosidase,11.5 ± 0.1 µM
same,IC50,[3],11 ± 0.3 µM
same,percentage inhibition of intestinal sucrase,rat intestinal sucrase; compound 7 5–25 µM,dose-dependent manner
same,IC50,"rat intestinal sucrase; rat intestinal acetone powder, sucrose 56 mM, 60 min",20 µM
same,melting point,,139 to 141 °C

# Source: article PMC4105438, “Novel Benzoxazine-Based Aglycones Block Glucose Uptake In Vivo by Inhibiting Glycosidases” (PLoS ONE, 2014)
